Data from the OligoGym collection.
HELM strings list units from the 5' end as sugar, base in round brackets, then linkage (d deoxyribose, r ribose, m 2'-O-methyl, p phosphodiester). Strings are as the collection lists them; they lack the last nucleoside at the 3' end of the tested compound. [moe] = 2'-O-(2-methoxyethyl) (MOE); [sp] = phosphorothioate linkage; [m5C] = 5-methylcytosine

These substances were tested against PRNP (assay: mouse, dose not given). Conditions: ASO.

Row | Substance | 3 h FOB score
1 | RNA1{[moe](G)[sp].[moe](G)p.[moe](T)p.[moe](T)p.[moe]([m5C])[sp].d(A)[sp].d(G)[sp].d(T)[sp].d(G)[sp].d(T)[sp].d(T)[sp].d(G)[sp].d(T)[sp].d(G)[sp].d(A)[sp].[moe]([m5C])p.[moe](A)p.[moe](A)[sp].[moe](T)}$$$$ (last 3' nucleoside missing) | 7 score 0-7
2 | RNA1{[moe](G)[sp].[moe](G)p.[moe]([m5C])p.[moe](A)p.[moe](A)[sp].d(A)[sp].d(G)[sp].d(G)[sp].d(T)[sp].d(A)[sp].d(T)[sp].d(T)[sp].d(T)[sp].d([m5C])[sp].d(A)[sp].[moe](G)p.[moe](A)p.[moe]([m5C])[sp].[moe](T)}$$$$ (last 3' nucleoside missing) | 6.5 score 0-7
3 | RNA1{[moe](G)[sp].[moe](G)p.[moe]([m5C])p.[moe](A)p.[moe]([m5C])[sp].d(T)[sp].d(T)[sp].d(T)[sp].d([m5C])[sp].d(T)[sp].d(T)[sp].d(T)[sp].d(T)[sp].d(T)[sp].d(A)[sp].[moe](T)p.[moe](T)p.[moe](T)[sp].[moe]([m5C])}$$$$ (last 3' nucleoside missing) | 1 score 0-7
4 | RNA1{[moe](G)[sp].[moe](G)p.[moe]([m5C])p.[moe](T)p.[moe](T)[sp].d(A)[sp].d([m5C])[sp].d(T)[sp].d([m5C])[sp].d(G)[sp].d(G)[sp].d([m5C])[sp].d(T)[sp].d(T)[sp].d(G)[sp].[moe](T)p.[moe](T)p.[moe]([m5C])[sp].[moe]([m5C])}$$$$ (last 3' nucleoside missing) | 3.75 score 0-7
5 | RNA1{[moe](G)[sp].[moe](T)[sp].[moe]([m5C])p.[moe](A)p.[moe](G)p.[moe](T)p.[moe](T)p.d(T)[sp].d(T)[sp].d(T)[sp].d([m5C])[sp].d([m5C])[sp].d([m5C])[sp].d([m5C])[sp].d(A)[sp].d([m5C])[sp].d(A)[sp].[moe](T)p.[moe](A)}$$$$ (last 3' nucleoside missing) | 0 score 0-7
6 | RNA1{[moe](G)[sp].[moe](T)p.[moe](A)p.[moe](T)p.[moe](A)[sp].d(A)[sp].d(T)[sp].d(T)[sp].d(T)[sp].d(T)[sp].d(T)[sp].d(T)[sp].d(T)[sp].d(A)[sp].d([m5C])[sp].[moe]([m5C])p.[moe](T)p.[moe](G)[sp].[moe](G)}$$$$ (last 3' nucleoside missing) | 0 score 0-7
7 | RNA1{[moe](G)[sp].[moe](T)p.[moe](A)p.[moe](T)p.[moe](G)[sp].d(T)[sp].d([m5C])[sp].d(A)[sp].d(A)[sp].d(A)[sp].d(A)[sp].d(T)[sp].d([m5C])[sp].d(A)[sp].d(T)[sp].[moe](T)p.[moe]([m5C])p.[moe](T)[sp].[moe](G)}$$$$ (last 3' nucleoside missing) | 6 score 0-7
8 | RNA1{[moe](G)[sp].[moe](T)p.[moe](A)p.[moe](T)p.[moe]([m5C])[sp].d(A)[sp].d(T)[sp].d(G)[sp].d(T)[sp].d(G)[sp].d(G)[sp].d([m5C])[sp].d([m5C])[sp].d(T)[sp].d([m5C])[sp].[moe]([m5C])p.[moe](T)p.[moe](A)[sp].[moe](A)}$$$$ (last 3' nucleoside missing) | 5.5 score 0-7
9 | RNA1{[moe](G)[sp].[moe](T)p.[moe](G)p.[moe](A)p.[moe](A)[sp].d(T)[sp].d(A)[sp].d(T)[sp].d(G)[sp].d(T)[sp].d([m5C])[sp].d([m5C])[sp].d(T)[sp].d([m5C])[sp].d(T)[sp].[moe](A)p.[moe](G)p.[moe]([m5C])[sp].[moe]([m5C])}$$$$ (last 3' nucleoside missing) | 2.5 score 0-7
10 | RNA1{[moe](G)[sp].[moe](T)p.[moe](G)p.[moe](A)p.[moe]([m5C])[sp].d(A)[sp].d(A)[sp].d(T)[sp].d(A)[sp].d(T)[sp].d(T)[sp].d(T)[sp].d(A)[sp].d([m5C])[sp].d(T)[sp].[moe]([m5C])p.[moe](T)p.[moe](T)[sp].[moe](G)}$$$$ (last 3' nucleoside missing) | 1 score 0-7
11 | RNA1{[moe](G)[sp].[moe](T)p.[moe](G)p.[moe](G)p.[moe](A)[sp].d(A)[sp].d(G)[sp].d(A)[sp].d([m5C])[sp].d(T)[sp].d(T)[sp].d(G)[sp].d(T)[sp].d(G)[sp].d(T)[sp].[moe](T)p.[moe](A)p.[moe](G)[sp].[moe](A)}$$$$ (last 3' nucleoside missing) | 5.25 score 0-7
12 | RNA1{[moe](G)[sp].[moe](T)p.[moe](G)p.[moe](T)p.[moe](T)[sp].d(G)[sp].d(T)[sp].d(G)[sp].d(A)[sp].d([m5C])[sp].d(A)[sp].d(A)[sp].d(T)[sp].d(A)[sp].d(T)[sp].[moe](T)p.[moe](T)p.[moe](A)[sp].[moe]([m5C])}$$$$ (last 3' nucleoside missing) | 1 score 0-7
13 | RNA1{[moe](G)[sp].[moe](T)p.[moe](G)p.[moe](T)p.[moe](T)[sp].d([m5C])[sp].d([m5C])[sp].d(A)[sp].d(T)[sp].d([m5C])[sp].d([m5C])[sp].d(T)[sp].d([m5C])[sp].d([m5C])[sp].d(A)[sp].[moe](G)p.[moe](G)p.[moe]([m5C])[sp].[moe](T)}$$$$ (last 3' nucleoside missing) | 1 score 0-7
14 | RNA1{[moe](G)[sp].[moe](T)p.[moe](G)p.[moe](T)p.[moe]([m5C])[sp].d(A)[sp].d(T)[sp].d(A)[sp].d(A)[sp].d(T)[sp].d(T)[sp].d(T)[sp].d(T)[sp].d([m5C])[sp].d(T)[sp].[moe](T)p.[moe](A)p.[moe](G)[sp].[moe]([m5C])}$$$$ (last 3' nucleoside missing) | 0.5 score 0-7
15 | RNA1{[moe](G)[sp].[moe](T)p.[moe](G)p.[moe](T)p.[moe]([m5C])p.[moe](A)p.d(T)[sp].d(A)[sp].d(A)[sp].d(T)[sp].d(T)[sp].d(T)[sp].d(T)[sp].d([m5C])[sp].d(T)[sp].d(T)[sp].[moe](A)p.[moe](G)[sp].[moe]([m5C])}$$$$ (last 3' nucleoside missing) | 0 score 0-7
16 | RNA1{[moe](G)[sp].[moe](T)p.[moe](G)p.[moe](T)p.[moe]([m5C])p.d(A)[sp].d(T)[sp].d(A)[sp].d(A)[sp].d(T)[sp].d(T)[sp].d(T)[sp].d(T)[sp].d([m5C])[sp].[moe](T)[sp].[moe](T)p.[moe](A)p.[moe](G)}$$$$ (last 3' nucleoside missing) | 0 score 0-7
17 | RNA1{[moe](G)[sp].[moe](T)p.[moe](G)p.[moe](T)p.d([m5C])[sp].d(A)[sp].d(T)[sp].d(A)[sp].d(A)[sp].d(T)[sp].d(T)[sp].d(T)[sp].d(T)[sp].d([m5C])[sp].[moe](T)p.[moe](T)p.[moe](A)p.[moe](G)[sp].[moe]([m5C])}$$$$ (last 3' nucleoside missing) | 0 score 0-7
18 | RNA1{[moe](G)[sp].[moe](T)p.[moe](G)p.[moe]([m5C])p.[moe](T)[sp].d(T)[sp].d(A)[sp].d(T)[sp].d(T)[sp].d(A)[sp].d(T)[sp].d(T)[sp].d([m5C])[sp].d(A)[sp].d(T)[sp].[moe](G)p.[moe](T)p.[moe](T)[sp].[moe]([m5C])}$$$$ (last 3' nucleoside missing) | 0.5 score 0-7
19 | RNA1{[moe](G)[sp].[moe](T)p.[moe](T)p.[moe](A)p.[moe](G)[sp].d([m5C])[sp].d(T)[sp].d(T)[sp].d(T)[sp].d(T)[sp].d(T)[sp].d(T)[sp].d(T)[sp].d([m5C])[sp].d(A)[sp].[moe]([m5C])p.[moe](T)p.[moe](G)[sp].[moe](T)}$$$$ (last 3' nucleoside missing) | 0.5 score 0-7
20 | RNA1{[moe](G)[sp].[moe](T)p.[moe](T)p.[moe](G)p.[moe](A)[sp].d(T)[sp].d(T)[sp].d(T)[sp].d(T)[sp].d(T)[sp].d([m5C])[sp].d([m5C])[sp].d(A)[sp].d(G)[sp].d(A)[sp].[moe](A)p.[moe](G)p.[moe](T)[sp].[moe](T)}$$$$ (last 3' nucleoside missing) | 3.25 score 0-7
21 | RNA1{[moe](G)[sp].[moe](T)p.[moe](T)p.[moe](G)p.[moe](T)[sp].d(G)[sp].d(A)[sp].d([m5C])[sp].d(A)[sp].d(A)[sp].d(T)[sp].d(A)[sp].d(T)[sp].d(T)[sp].d(T)[sp].[moe](A)p.[moe]([m5C])p.[moe](T)[sp].[moe]([m5C])}$$$$ (last 3' nucleoside missing) | 0 score 0-7
22 | RNA1{[moe](G)[sp].[moe](T)p.[moe](T)p.[moe](G)p.[moe](T)[sp].d(T)[sp].d(G)[sp].d(A)[sp].d(T)[sp].d(T)[sp].d(T)[sp].d(T)[sp].d(T)[sp].d([m5C])[sp].d([m5C])[sp].[moe](A)p.[moe](G)p.[moe](A)[sp].[moe](A)}$$$$ (last 3' nucleoside missing) | 4.75 score 0-7
23 | RNA1{[moe](G)[sp].[moe](T)p.[moe](T)p.[moe](G)p.[moe](T)[sp].d(T)[sp].d(G)[sp].d(T)[sp].d(T)[sp].d(T)[sp].d([m5C])[sp].d(T)[sp].d(T)[sp].d(T)[sp].d(T)[sp].[moe]([m5C])p.[moe](T)p.[moe](G)[sp].[moe](G)}$$$$ (last 3' nucleoside missing) | 6 score 0-7
24 | RNA1{[moe](G)[sp].[moe](T)p.[moe](T)p.[moe](T)p.[moe]([m5C])[sp].d([m5C])[sp].d([m5C])[sp].d(A)[sp].d([m5C])[sp].d(A)[sp].d(T)[sp].d(A)[sp].d(T)[sp].d(T)[sp].d(A)[sp].[moe](A)p.[moe](G)p.[moe](T)[sp].[moe](A)}$$$$ (last 3' nucleoside missing) | 1 score 0-7
25 | RNA1{[moe](G)[sp].[moe](T)p.[moe](T)p.[moe]([m5C])p.[moe](A)[sp].d(G)[sp].d(A)[sp].d(G)[sp].d(A)[sp].d(A)[sp].d(T)[sp].d([m5C])[sp].d(T)[sp].d(T)[sp].d(T)[sp].[moe]([m5C])p.[moe](A)p.[moe]([m5C])[sp].[moe]([m5C])}$$$$ (last 3' nucleoside missing) | 0 score 0-7
26 | RNA1{[moe](G)[sp].[moe](T)p.[moe](T)p.[moe]([m5C])p.[moe](A)[sp].d(G)[sp].d(T)[sp].d(G)[sp].d(T)[sp].d(T)[sp].d(G)[sp].d(T)[sp].d(G)[sp].d(A)[sp].d([m5C])[sp].[moe](A)p.[moe](A)p.[moe](T)[sp].[moe](A)}$$$$ (last 3' nucleoside missing) | 6.75 score 0-7
